The compounds below were run against T1, human S1P1 receptor (Homo sapiens, UniProt P21453) (assay: GTP y35S binding assay for S1P1 activity). Settings: membranes of cells stably expressing the S1P1 receptor, agonist potency.
T1 construct: expressed in transfected cells; membranes used
T1 sequence (P21453 whole entry): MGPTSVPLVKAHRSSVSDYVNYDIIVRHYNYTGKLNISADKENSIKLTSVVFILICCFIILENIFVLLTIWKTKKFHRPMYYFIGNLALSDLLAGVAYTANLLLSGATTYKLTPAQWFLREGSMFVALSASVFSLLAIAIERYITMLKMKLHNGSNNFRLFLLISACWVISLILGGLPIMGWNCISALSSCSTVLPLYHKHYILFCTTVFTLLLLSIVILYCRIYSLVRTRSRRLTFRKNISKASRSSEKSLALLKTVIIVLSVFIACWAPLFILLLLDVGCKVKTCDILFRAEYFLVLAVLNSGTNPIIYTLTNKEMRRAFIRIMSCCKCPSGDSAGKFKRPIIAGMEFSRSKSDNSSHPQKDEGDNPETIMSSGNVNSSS
Type: biochemical
Protocol: Compounds were synthesized and tested for S1P1 activity using the GTP y^35S binding assay. These compounds may be assessed for their ability to activate or block activation of the human S1P1 receptor in cells stably expressing the S1P1 receptor.
GTP y^35S binding was measured in the medium containing (mM) HEPES 25, pH 7.4, MgCl2 10, NaCl 100, dithitothreitol 0.5, digitonin 0.003%, 0.2 nM GTP y^35S, and 5 μg membrane protein in a volume of 150 μl. Test compounds were included in the concentration range from 0.08 to 5,000 nM unless indicated otherwise. Membranes were incubated with 100 μM […] for 30 min, and subsequently with 10 μM GDP for 10 min on ice. Drug solutions and membrane were mixed, and then reactions were initiated by adding GTP y^35S and continued for 30 min at 25° C. Reaction mixtures were filtered over Whatman GF/B filters under vacuum, and washed three times with 3 mL of ice-cold buffer (HEPES 25, pH7.4, MgCl2 10 and NaCl 100). Filters were dried and mixed with scintillant, and counted for ^35S activity using a ([…]. Agonist-induced GTP y^35S binding was obtained by subtracting that in the absence of agonist. Binding data were analyzed using a non-linear regression method. In case of antagonist assay, the reaction mixture contained 10 nM […] in the presence of test antagonist at concentrations ranging from 0.08 to 5000 nM.
`Cc1ccc(CC(=C=Cc2ccc(CNCCCP(=O)(O)O)cc2-c2cccs2)c2cc(F)cc(F)c2)cc1C` [Compound 1, [3-({4-[3-(3,5-difluorophenyl)-4-(3,4-dimethylphenyl)buta-1,2-dien-1-yl]-3-(2-thienyl)benzyl}amino)propyl]phosphonic acid] showed an EC50 of 58.4 nM. Compound `Cc1ccc(CC(=C=Cc2ccc(CNCCCP(=O)(O)O)cc2-c2ccco2)c2cc(F)cc(F)c2)cc1C` [Compound 2, [3-({4-[3-(3,5-Difluorophenyl)-4-(3,4-dimethylphenyl)buta-1,2-dien-1-yl]-3-(2-furyl)benzyl}amino)propyl]phosphonic acid] has an EC50 of 58.5 nM. `CCc1cc(C=C=C(Cc2ccc(C)c(C)c2)c2cc(F)cc(F)c2)ccc1CNCCCP(=O)(O)O` [Compound 3, [3-({4-[3-(3,5-Difluorophenyl)-4-(3,4-dimethylphenyl)buta-1,2-dien-1-yl]-2-ethylbenzyl}amino)propyl]phosphonic acid] was tested, and the EC50 was 1640 nM.

From patent US20140135293A1, “ALLENE DERIVATIVES AS SPHINGOSINE 1-PHOSPHATE (S1P) RECEPTOR MODULATORS” (ALLERGAN, INC., priority 2012, published 2014)
